Tests used:
Assay type in all cases: cell-based
GTP-bound KRAS = assay: RAS-binding domain pull down assay; details: 400 of compound, 24 hour treatment
Procedure: KRAS activation was determined using the rat sarcoma (RAS) activation assay kit (Millipore, 17-218) in accordance with the manufacturer's guidelines. Cell lysates were prepared using Mg2^+ Lysis/wash buffer (MLB). Samples were incubated with 10 μg RAS assay reagent and incubated for 45 minutes at 4° C. Agarose beads were pelleted by centrifugation and washed 3 times with MLB. Agarose beads were re-suspended in loading buffer. Samples were subjected to western blotting, as previously described, and the blots were probed using anti-K-Ras antibody (sc-30, Santa Cruz Biotechnology (SANTA)).

[1] = system: normal CCD-19Lu lung cells; assay: MTT cytotoxicity assay; details: 72 h
Procedure: (§1) Cells were seeded in a 96-well microplate with 3000, 4000 or 5000 cells/well confluence and cultured overnight for cell adhesion. Different concentrations of compound K017-0105 were added to the microplates, and the microplates were incubated for 24, 48 or 72 hours (h). Each concentration of compound K017-0105 was repeated in triplicate. 10 μL 3-(4,5-Dimethylthiazol-2-yl)-2,5-Diphenyltetrazolium Bromide (MTT) (5 mg/mL) solution was added to every well. After incubating for 4 h, 100 μL dimethyl sulfoxide (DMSO) was added to each well. After shaking for 15 minutes, the absorbance of the microplate was measured at 570 nm (absorbance) and 650 nm (reference) by a microplate reader (Tecan, Morrisville, N.C., USA).

p-CRAF, p-Akt and p-ERK = assay: Western blot analysis of KRAS downstream signaling; details: compared with untreated control cells
Procedure: H2122, H358 and A549 NSCLC cells were rinsed with phosphate-buffered saline (PBS) and lysed in radioimmunoprecipitation assay (RIPA) lysis buffer (Beyotime, China) supplemented with a protease and phosphatase inhibitor cocktail (Thermo Scientific 78440, USA) once for 30 minutes. Cell lysates were centrifuged at 12,000 g for 10 minutes at 4° C. The supernatant was collected, and the protein concentration was calculated with a Bio-Rad detergent compatible (DC™) protein assay kit (Bio-Rad, Philadelphia, Pa., USA). 30 μg protein lysates were loaded and separated by 10% sodium dodecyl sulfate (SDS)-polyacrylamide gel electrophoresis and transferred to a nitrocellulose (NC) membrane. The membranes were incubated with the primary antibody (1:2000) and then with a fluorescence-conjugated secondary antibody (1:10000). Glyceraldehyde 3-phosphate dehydrogenase (GAPDH) was used as the loading control for normalization. The signal of the membranes was scanned with a LI-COR Odyssey Scanner (Belfast, Me., USA).

H358 NSCLC cells [2] = assay: Apoptosis analysis (Annexin V/PI flow cytometry); details: H358 cells, 0, 5, 10, 20 and 40 μM for 24 h
Procedure: (§2) H2122, A549 and H358 NSCLC cells were plated in a 6-well plate with 2.0×10^5 cells/well and cultured overnight for attachment. After treatment with compound K017-0105 at 0, 5, 10, 20, 40 μM for 24 h, all cells were harvested by trypsinization and centrifuged at room temperature at 1000 rotations per minute (RPM) for 5 minutes. Cells were re-suspended in 100 μL 1× binding buffer and stained with Annexin V and propidium iodide (PI) staining solution for 15 minutes at room temperature in the dark. Apoptotic cells were quantitatively counted by a BD FACSAria III Flow Cytometer.
(§3) The ability of compound K017-0105 in inducing apoptosis in H2122, H358 and A549 NSCLC cells was examined. H2122, H358 and A549 NSCLC cells were treated with compound K017-0105 at different concentrations (0, 5, 10, 20 and 40 μM) for 24 h. These cells were stained with Annexin V-FITC/PI, and […] was detected by flow cytometry.

A549 NSCLC cells [3] = assay: Apoptosis analysis (Annexin V/PI flow cytometry); details: A549 cells, 0, 5, 10, 20 and 40 μM for 24 h
Procedure: as §2, §3

H2122 NSCLC cells [4] = assay: Apoptosis analysis (Annexin V/PI flow cytometry); details: H2122 cells, 0, 5, 10, 20 and 40 μM for 24 h
Procedure: as §2, §3

H358 NSCLC cells [5] = assay: MTT cytotoxicity assay
Procedure: (§4) H2122, A549 and H358 non-small cell lung cancer (NSCLC) cells were purchased from ATCC and cultivated with Roswell Park Memorial Institute (RPMI) 1640 medium supplemented with 10% fetal bovine serum (Gibco, Big Cabin, Oklahoma, ME, USA), 100 units/mL penicillin and 100 μg/mL streptomycin (Gibco, Big Cabin, Oklahoma, ME, USA). All the cells were cultivated at 37° C. in a humidified atmosphere of 5% CO2.
as §1

A549 NSCLC cells [6] = assay: MTT cytotoxicity assay
Procedure: as §4, §1

H2122 NSCLC cells [7] = assay: MTT cytotoxicity assay
Procedure: as §4, §1

level of GTP-bound KRAS (GTP-bound KRAS; A549 NSCLC cells): inhibited
level of GTP-bound KRAS (GTP-bound KRAS; H358 NSCLC cells): inhibited
level of GTP-bound KRAS (GTP-bound KRAS; H2122 NSCLC cells): inhibited
Compound: O=C1Nc2ccccc2/C1=N\Nc1ccc(F)c(Cl)c1 [compound K017-0105]
cytotoxicity [1]: no cytotoxicity
levels of p-CRAF, p-Akt and p-ERK (p-CRAF, p-Akt and p-ERK; A549 NSCLC cells): decreased
levels of p-CRAF, p-Akt and p-ERK (p-CRAF, p-Akt and p-ERK; H358 NSCLC cells): decreased
levels of p-CRAF, p-Akt and p-ERK (p-CRAF, p-Akt and p-ERK; H2122 NSCLC cells): decreased
apoptosis (H358 NSCLC cells [2]): significantly induced apoptosis
apoptosis (A549 NSCLC cells [3]): significantly induced apoptosis
apoptosis (H2122 NSCLC cells [4]): significantly induced apoptosis
IC50 (H358 NSCLC cells [5]; Homo sapiens, NCI-H358, 72 h treatment, mean±SEM): 8.18 ± 1.29 µM
cytotoxicity (H358 NSCLC cells [5]; MTT, 72 h): significant cytotoxicity
IC50 (A549 NSCLC cells [6]; Homo sapiens, 72 h treatment, mean±SEM): 8.28 ± 2.64 µM
cytotoxicity (A549 NSCLC cells [6]; MTT, 72 h): significant cytotoxicity
IC50 (H2122 NSCLC cells [7]; Homo sapiens, NCI-H2122, 72 h treatment, mean±SEM): 7.19 ± 1.6 µM
cytotoxicity (H2122 NSCLC cells [7]; MTT, 72 h): significant cytotoxicity

From patent publication US9884047B1, “Method of treating lung cancer” (Macau University of Science and Technology, priority 2017, dated 2018)
